Test system: P388 Leukemia
Assay: Antitumor activity against P388 leukemia in mice (increased life span)
Format: in vivo, CDF1 mice
Conditions: Mus musculus, P388, ip, 720 h, read-out: ILS (increased life span)
Protocol: Ascites were collected from the abdominal cavity of P388 ascites tumor-bearing cancer mice (DBA/2) on the 7th day after transplantation. A number of P388 cells in the ascites was counted, and a tumor cell floating liquid of 5×10^6 cells/ml was prepared using a physiological saline solution. Then, 0.2 ml of the solution containing 1×10^6 cells was transplanted into the abdominal cavity of CDF1 mice having a body weight of from 20 to 25 g.
The effect of the test compound was determined in terms of the ratio of average survival days of the group administered with the test compound to average survival days of the control group (non-medicated group) (i.e., an increased life span, ILS%).

Row | SMILES | ILS at 4 mg/kg | ILS at 1 mg/kg | ILS at 2 mg/kg | ILS at 8 mg/kg
1 | C/C1=C\C(O)C(=NOCc2ccccc2)/C=C/C=C\c2csc(n2)C(C)N2C(=O)CC(C(C)(O)C(=O)SCc3oc(=O)oc3C)(CC1)[S+]2[O-] (single isomer, unassigned) [Compound 73] | 43% | – | – | –
2 | C/C1=C\C(OC(=O)OCC2c3ccccc3-c3ccccc32)C(=O)/C=C/C=C\c2csc(n2)C(C)N2C(=O)CC(C(C)(O)C(=O)SCc3oc(=O)oc3C)(CC1)[S+]2[O-] (centres unmarked) [Compound 57] | 53% | – | – | –
3 | C/C1=C\C(OC(=O)Oc2ccccc2)C(=O)/C=C/C=C\c2csc(n2)C(C)N2C(=O)CC(C(C)(O)C(=O)SCc3oc(=O)oc3C)(CC1)[S+]2[O-] (centres unmarked) [Compound 55] | – | 40% | – | –
4 | COC1(OC2C=C(C)CCC3(C(C)(O)C(=O)SCc4oc(=O)oc4C)CC(=O)N(C(C)c4nc(cs4)C=CC=CC2=O)[S+]3[O-])CC[S+]([O-])CC1 (centres unmarked) [Compound 128] | 84% | – | – | –
5 | C/C1=C\C(O)C(=O)/C=C/C=C\c2csc(n2)C(C)N2C(=O)CC(C(C)(O)C(=O)SCOC(=O)C(C)(C)C)(CC1)[S+]2[O-] (centres unmarked) [Compound 34] | – | – | 48% | –
6 | C/C1=C\C(OC(=O)OCc2ccccc2)C(=O)/C=C/C=C\c2csc(n2)C(C)N2C(=O)CC(C(C)(O)C(=O)SCc3oc(=O)oc3C)(CC1)[S+]2[O-] (centres unmarked) [Compound 56] | – | 63% | – | –
7 | C/C1=C\C(O)C(=O)/C=C/C=C\c2csc(n2)C(C)N2C(=O)CC(C(C)(O)C(=O)SCc3oc(=O)oc3C)(CC1)[S+]2[O-] (centres unmarked) [Compound 35] | – | – | 65% | –
8 | C/C1=C\C(OC(=O)C2CCCCC2)C(=O)/C=C/C=C\c2csc(n2)C(C)N2C(=O)CC(C(C)(O)C(=O)SCc3oc(=O)oc3C)(CC1)[S+]2[O-] (centres unmarked) [Compound 48] | – | – | – | 47%
9 | CC1=CC(OC(=O)[C@H](C)NC(=O)OCc2ccccc2)C(=O)C=CC=Cc2csc(n2)C(C)N2C(=O)CC(C(C)(O)C(=O)SCc3oc(=O)oc3C)(CC1)[S+]2[O-] (some centres unmarked) [Compound 163] | – | – | 46% | –

Same assay, conditions: Mus musculus, P388, ip, 720 h; 1.0 mg/kg, single i.p. 24 hours after transplantation, CDF1 mice, 30 days observation; read-out: ILS (increased life span)

Row | SMILES | ILS at 1 mg/kg
10 | C/C1=C\C(OC(=O)OCc2ccccc2)C(=O)/C=C/C=C\c2csc(n2)C(C)NC(=O)CC2(CC1)[S+]([O-])SC(=O)C2(C)O (centres unmarked) [Compound 14] | 42%
11 | C/C1=C\C(OC(=O)Oc2ccccc2)C(=O)/C=C/C=C\c2csc(n2)C(C)NC(=O)CC2(CC1)[S+]([O-])SC(=O)C2(C)O (centres unmarked) [Compound 12] | 44%
12 | COC1(OC2C=C(C)CCC3(C(C)(O)C(=O)SCc4oc(=O)oc4C)CC(=O)N(C(C)c4nc(cs4)C=CC=CC2=O)[S+]3[O-])CCS(=O)(=O)CC1 (centres unmarked) [Compound 129] | 64%

Same assay, conditions: Mus musculus, P388, ip, 720 h; 2.0 mg/kg, single i.p. 24 hours after transplantation, CDF1 mice, 30 days observation; read-out: ILS (increased life span)

Row | SMILES | ILS at 2 mg/kg
13 | CC1=CC(OC(=O)CO)C(=O)C=CC=Cc2csc(n2)C(C)N2C(=O)CC(C(C)(O)C(=O)SCc3oc(=O)oc3C)(CC1)[S+]2[O-] (centres unmarked) [Compound 154] | 48%
14 | CC1=CC(OC(=O)c2cccnc2)C(=O)C=CC=Cc2csc(n2)C(C)N2C(=O)CC(C(C)(O)C(=O)SCc3oc(=O)oc3C)(CC1)[S+]2[O-] (centres unmarked) [Compound 144] | 49%
15 | CCOC(=O)OC1/C=C(\C)CCC2(C(C)(O)C(=O)SCOC(=O)C(C)(C)C)CC(=O)N(C(C)c3nc(cs3)/C=C\C=C\C1=O)[S+]2[O-] (centres unmarked) [Compound 41] | 40%
16 | C/C1=C\C(OC(=O)OCC(C)C)C(=O)/C=C/C=C\c2csc(n2)C(C)NC(=O)CC2(CC1)[S+]([O-])SC(=O)C2(C)O (centres unmarked) [Compound 11] | 50%
17 | CCOC(=O)OC1/C=C(\C)CCC2(C(C)(O)C(=O)SCc3oc(=O)oc3C)CC(=O)N(C(C)c3nc(cs3)/C=C\C=C\C1=O)[S+]2[O-] (centres unmarked) [Compound 53] | 43%
18 | CC1=CC(OC(=O)Cc2cccnc2)C(=O)C=CC=Cc2csc(n2)C(C)N2C(=O)CC(C(C)(O)C(=O)SCc3oc(=O)oc3C)(CC1)[S+]2[O-] (centres unmarked) [Compound 147] | 60%

Same assay, conditions: Mus musculus, P388, ip, 720 h; 4.0 mg/kg, single i.p. 24 hours after transplantation, CDF1 mice, 30 days observation; read-out: ILS (increased life span)

Row | SMILES | ILS at 4 mg/kg
19 | CC(=O)NCC(=O)OC1C=C(C)CCC2(C(C)(O)C(=O)SCc3oc(=O)oc3C)CC(=O)N(C(C)c3nc(cs3)C=CC=CC1=O)[S+]2[O-] (centres unmarked) [Compound 160] | 62%
20 | CC1=CC(OC(=O)CN(C)C(=O)OC(C)(C)C)C(=O)C=CC=Cc2csc(n2)C(C)N2C(=O)CC(C(C)(O)C(=O)SCc3oc(=O)oc3C)(CC1)[S+]2[O-] (centres unmarked) [Compound 161] | 65%
21 | C/C1=C\C(OC(=O)[C@H](C)NC(=O)OC(C)(C)C)C(=O)/C=C/C=C\c2csc(n2)C(C)NC(=O)CC2(CC1)[S+]([O-])SC(=O)C2(C)O (some centres unmarked) [Compound 102] | 49%
22 | CC1=CC(OC(=O)C2CCC(=O)N2)C(=O)C=CC=Cc2csc(n2)C(C)N2C(=O)CC(C(C)(O)C(=O)SCc3oc(=O)oc3C)(CC1)[S+]2[O-] (centres unmarked) [Compound 149] | 55%
23 | C/C1=C\C(OC(=O)CN(C)C(=O)OCc2ccccc2)C(=O)/C=C/C=C\c2csc(n2)C(C)NC(=O)CC2(CC1)[S+]([O-])SC(=O)C2(C)O (centres unmarked) [Compound 101] | 48%

Same assay, conditions: Mus musculus, P388, ip, 720 h; 8.0 mg/kg, single i.p. 24 hours after transplantation, CDF1 mice, 30 days observation; read-out: ILS (increased life span)

Row | SMILES | ILS at 8 mg/kg
24 | COC1(OC2/C=C(\C)CCC3(CC(=O)NC(C)c4nc(cs4)/C=C\C=C\C2=O)[S+]([O-])SC(=O)C3(C)O)CCCCC1 (centres unmarked) [Compound 91] | 48%
25 | CC1=CC(OC(=O)[C@@H]2CCCN2C(=O)OC(C)(C)C)C(=O)C=CC=Cc2csc(n2)C(C)N2C(=O)CC(C(C)(O)C(=O)SCc3oc(=O)oc3C)(CC1)[S+]2[O-] (some centres unmarked) [Compound 148] | 49%
26 | CC1=CC(OC(=O)CN(C)C(=O)OCc2ccccc2)C(=O)C=CC=Cc2csc(n2)C(C)N2C(=O)CC(C(C)(O)C(=O)SCc3oc(=O)oc3C)(CC1)[S+]2[O-] (centres unmarked) [Compound 162] | 57%
27 | CC1=CC(OC(=O)CNC(=O)OCc2ccccc2)C(=O)C=CC=Cc2csc(n2)C(C)N2C(=O)CC(C(C)(O)C(=O)SCc3oc(=O)oc3C)(CC1)[S+]2[O-] (centres unmarked) [Compound 157] | 98%
28 | COC1(OC2/C=C(\C)CCC3(CC(=O)NC(C)c4nc(cs4)/C=C\C=C\C2=O)[S+]([O-])SC(=O)C3(C)O)CCSCC1 (centres unmarked) [Compound 92] | 48%
29 | C/C1=C\C(OC(=O)CNC(=O)[C@H](C)NC(=O)OCc2ccccc2)C(=O)/C=C/C=C\c2csc(n2)C(C)NC(=O)CC2(CC1)[S+]([O-])SC(=O)C2(C)O (some centres unmarked) [Compound 110] | 58%
30 | COC1(OC2C=C(C)CCC3(C(C)(O)C(=O)SCc4oc(=O)oc4C)CC(=O)N(C(C)c4nc(cs4)C=CC=CC2=O)[S+]3[O-])CCN(c2ccccc2)CC1 (centres unmarked) [Compound 131] | 60%
31 | C/C1=C\C(OC(=O)CNC(=O)CCNC(=O)OC(C)(C)C)C(=O)/C=C/C=C\c2csc(n2)C(C)NC(=O)CC2(CC1)[S+]([O-])SC(=O)C2(C)O (centres unmarked) [Compound 112] | 67%
32 | CC1=CC(OC(=O)CNC(=O)C(CC(C)C)NC(=O)OCc2ccccc2)C(=O)C=CC=Cc2csc(n2)C(C)N2C(=O)CC(C(C)(O)C(=O)SCc3oc(=O)oc3C)(CC1)[S+]2[O-] (centres unmarked) [Compound 173] | 64%
33 | CC1=CC(OC(=O)CNC(=O)CNC(=O)OCc2ccccc2)C(=O)C=CC=Cc2csc(n2)C(C)N2C(=O)CC(C(C)(O)C(=O)SCc3oc(=O)oc3C)(CC1)[S+]2[O-] (centres unmarked) [Compound 166] | 64%
34 | C/C1=C\C(OC(=O)CNC(=O)C(CC(C)C)NC(=O)OCc2ccccc2)C(=O)/C=C/C=C\c2csc(n2)C(C)NC(=O)CC2(CC1)[S+]([O-])SC(=O)C2(C)O (centres unmarked) [Compound 115] | 67%
35 | CC1=CC(OC(=O)CNC=O)C(=O)C=CC=Cc2csc(n2)C(C)N2C(=O)CC(C(C)(O)C(=O)SCc3oc(=O)oc3C)(CC1)[S+]2[O-] (centres unmarked) [Compound 159] | 50%

Same assay, conditions: Mus musculus, P388, ip, 720 h; 16 mg/kg, single i.p. 24 hours after transplantation, CDF1 mice, 30 days observation

Row | SMILES | ILS at 16 mg/kg
36 | CC1=CC(OC(=O)CCNC(=O)CNC(=O)OCc2ccccc2)C(=O)C=CC=Cc2csc(n2)C(C)N2C(=O)CC(C(C)(O)C(=O)SCc3oc(=O)oc3C)(CC1)[S+]2[O-] (centres unmarked) [Compound 176] | 75%
37 | C/C1=C\C(OC(=O)CCNC(=O)CNC(=O)OCc2ccccc2)C(=O)/C=C/C=C\c2csc(n2)C(C)NC(=O)CC2(CC1)[S+]([O-])SC(=O)C2(C)O (centres unmarked) [Compound 118] | 71%
38 | CC1=CC(OC(=O)CNC(=O)CCNC(=O)OCc2ccccc2)C(=O)C=CC=Cc2csc(n2)C(C)N2C(=O)CC(C(C)(O)C(=O)SCc3oc(=O)oc3C)(CC1)[S+]2[O-] (centres unmarked) [Compound 169] | 91%
39 | CC1=CC(OC(=O)CN(C)C(=O)CCNC(=O)OCc2ccccc2)C(=O)C=CC=Cc2csc(n2)C(C)N2C(=O)CC(C(C)(O)C(=O)SCc3oc(=O)oc3C)(CC1)[S+]2[O-] (centres unmarked) [Compound 175] | 65%
40 | CC1=CC(OC(=O)CNC(=O)CCCNC(=O)OCc2ccccc2)C(=O)C=CC=Cc2csc(n2)C(C)N2C(=O)CC(C(C)(O)C(=O)SCc3oc(=O)oc3C)(CC1)[S+]2[O-] (centres unmarked) [Compound 171] | 63%
41 | C/C1=C\C(OC(=O)CNC(=O)CCCNC(=O)OCc2ccccc2)C(=O)/C=C/C=C\c2csc(n2)C(C)NC(=O)CC2(CC1)[S+]([O-])SC(=O)C2(C)O (centres unmarked) [Compound 113] | 58%
42 | CC1=CC(OC2CCCCO2)C(=NO)C=CC=Cc2csc(n2)C(C)N2C(=O)CC(C(C)(O)C(=O)SCc3oc(=O)oc3C)(CC1)[S+]2[O-] (centres unmarked) [Compound 125] | 54%
43 | C/C1=C\C(OC(=O)CCNC(=O)CCNC(=O)OCc2ccccc2)C(=O)/C=C/C=C\c2csc(n2)C(C)NC(=O)CC2(CC1)[S+]([O-])SC(=O)C2(C)O (centres unmarked) [Compound 119] | 63%

Same assay, conditions: Mus musculus, P388, ip, 720 h; 32 mg/kg, single i.p. 24 hours after transplantation, CDF1 mice, 30 days observation

Row | SMILES | ILS at 32 mg/kg
44 | CC1=CC(OC(=O)CCNC(=O)CCNC(=O)OCc2ccccc2)C(=O)C=CC=Cc2csc(n2)C(C)N2C(=O)CC(C(C)(O)C(=O)SCc3oc(=O)oc3C)(CC1)[S+]2[O-] (centres unmarked) [Compound 177] | 52%

Reference: patent US5733924A, “DC 107 derivatives and treatment methods” (Kyowa Hakko Kogyo Co., Ltd., priority 1995, dated 1998)
